Reference: US10590462B2, “Probes and assays for measuring E3 ligase activity” (NORTHWESTERN UNIVERSITY, priority 2014, dated 2020)

Tested on: Rsp5 HECT domain
Experiment: UbiFlu real-time fluorescence polarization kinetics with Rsp5 HECT domain
Type: biochemical, S. cerevisiae
Conditions: in the presence of 8× SFlu

## O=C1OC2(c3ccc(O)cc3Oc3cc(O)ccc32)c2ccc(NC(=S)NCCS)cc21 [SFlu]
  inhibition of UbiFlu consumption: no inhibition
